Reference: patent US20240270821A1, “GIP/GLP1/GCG TRI-RECEPTOR AGONISTS AND USES THEREOF” (priority 2023, published 2024)
Like-named read-outs stand apart in the source and are kept apart here. Starred links: 1 amine or outer side, 2 acyl side, 3 side chain; linkers in the order of their positions; H or OH if unused. Non-standard residues stand in square brackets, D forms with d. Residues, ends and D or L forms follow the SMILES beside them. Groups on a side chain read outwards from the residue. No end group written: not given here. *: point of attachment. C20 diacid = O=C(O)CCCCCCCCCCCCCCCCCCC(=O)*; C18 diacid = O=C(O)CCCCCCCCCCCCCCCCC(=O)*; αMePhe(2-F) = C[C@](N)(Cc1ccccc1F)C(=O)O; γGlu = O=C(O)[C@H](CCC(=O)[*:2])N[*:1]; αMe4Pal = C[C@](N)(Cc1ccncc1)C(=O)O; αMeY = C[C@](N)(Cc1ccc(O)cc1)C(=O)O; 4Pal = N[C@@H](Cc1ccncc1)C(=O)O; αMeL = CC(C)C[C@](C)(N)C(=O)O; αMeS = C[C@](N)(CO)C(=O)O; Orn = NCCC[C@H](N)C(=O)O; AEEA = NCCOCCOCC(=O)O; Aib = CC(C)(N)C(=O)O

Legend:
Type in all cases: cell-based
hGIPR [1] = biological target: T1, hGIPR (Homo sapiens, UniProt P48546); experiment: Functional cAMP activity in the presence of 1% HSA; details: read-out: cAMP Rel EC50, hGIPR
T1 sequence (P48546 22-466): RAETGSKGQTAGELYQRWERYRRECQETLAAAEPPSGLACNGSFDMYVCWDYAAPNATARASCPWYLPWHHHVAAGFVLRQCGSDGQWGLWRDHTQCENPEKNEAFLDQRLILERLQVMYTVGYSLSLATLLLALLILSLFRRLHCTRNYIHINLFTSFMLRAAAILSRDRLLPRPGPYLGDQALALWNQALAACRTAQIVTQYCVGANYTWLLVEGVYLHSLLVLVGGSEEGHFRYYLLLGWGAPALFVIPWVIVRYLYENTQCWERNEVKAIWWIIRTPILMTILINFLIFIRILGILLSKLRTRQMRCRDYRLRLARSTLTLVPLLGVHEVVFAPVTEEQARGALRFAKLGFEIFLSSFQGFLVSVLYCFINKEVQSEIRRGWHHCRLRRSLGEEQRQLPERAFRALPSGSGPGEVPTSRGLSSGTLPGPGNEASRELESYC

hGLP-1R [2] = biological target: T2, hGLP-1R (Homo sapiens, UniProt P43220); experiment: Functional cAMP activity in the presence of 1% HSA; details: read-out: cAMP Rel EC50, hGLP-1R
human GcgR = human GcgR (Homo sapiens, UniProt P47871); experiment: Functional cAMP activity in the presence of 1% HSA; details: read-out: cAMP Rel EC50, hGcgR
hGIPR [3] = biological target: T1, hGIPR; experiment: Functional cAMP activation in the presence of 0.1% casein (no HSA); details: read-out: Relative cAMP EC50, hGIPR;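 on Relative cAMP EC50, hGIPR: intracellular cAMP rise after 30 min at 37 °C read by HTRF against a standard curve, scaled between buffer alone (0%) and top control ligand concentration (100%), four-parameter fit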;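 on Relative cAMP EC50, hGLP-1R: intracellular cAMP rise after 30 min at 37 °C read by HTRF, normalized between buffer only (0%) and maximal control ligand (100%), four-parameter variable-slope fit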;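 on Relative cAMP EC50, hGcgR: intracellular cAMP rise after 30 min at 37 °C, read by HTRF against a cAMP standard curve, scaled from buffer only (0%) to maximal control ligand response (100%)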
hGLP-1R [4] = biological target: T2, hGLP-1R; experiment: as above; details: read-out: Relative cAMP EC50, hGLP-1R
hGcgR = hGcgR (Homo sapiens, UniProt P47871); experiment: as above; details: read-out: Relative cAMP EC50, hGcgR;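 further: intracellular cAMP rise after 30 min at 37 °C, read by HTRF against a cAMP standard curve, scaled from buffer only (0%) to maximal control ligand response (100%)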
[5] = in the presence of 0.1% casein (no HSA), geometric mean

Sequence of human GcgR (P47871 26-477): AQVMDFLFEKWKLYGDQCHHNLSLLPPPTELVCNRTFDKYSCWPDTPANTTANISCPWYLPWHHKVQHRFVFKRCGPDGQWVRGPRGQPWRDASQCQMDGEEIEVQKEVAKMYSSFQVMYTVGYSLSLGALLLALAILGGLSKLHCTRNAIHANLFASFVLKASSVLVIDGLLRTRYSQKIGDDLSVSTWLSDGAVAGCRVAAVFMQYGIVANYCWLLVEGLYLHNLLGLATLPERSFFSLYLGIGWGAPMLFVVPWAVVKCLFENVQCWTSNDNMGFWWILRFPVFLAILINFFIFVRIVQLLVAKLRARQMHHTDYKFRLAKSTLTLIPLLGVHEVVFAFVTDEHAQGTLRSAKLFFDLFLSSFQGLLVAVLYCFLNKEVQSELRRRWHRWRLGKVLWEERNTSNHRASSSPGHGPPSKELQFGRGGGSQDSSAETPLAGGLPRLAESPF
Sequence of hGcgR (P47871 26-477): as above
T2 sequence (P43220 24-463): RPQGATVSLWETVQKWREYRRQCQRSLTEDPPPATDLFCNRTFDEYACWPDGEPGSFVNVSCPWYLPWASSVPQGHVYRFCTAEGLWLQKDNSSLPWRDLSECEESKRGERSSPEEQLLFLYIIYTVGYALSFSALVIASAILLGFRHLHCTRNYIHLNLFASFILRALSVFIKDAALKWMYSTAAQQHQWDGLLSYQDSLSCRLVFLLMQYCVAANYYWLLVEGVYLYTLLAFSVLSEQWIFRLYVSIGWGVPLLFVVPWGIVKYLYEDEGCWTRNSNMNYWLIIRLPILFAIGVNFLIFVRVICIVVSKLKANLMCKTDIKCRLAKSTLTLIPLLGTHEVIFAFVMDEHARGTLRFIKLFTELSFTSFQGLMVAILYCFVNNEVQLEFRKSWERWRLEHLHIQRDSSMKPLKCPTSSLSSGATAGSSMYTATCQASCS

Molecule	EC50 (hGIPR [1])	EC50 (hGLP-1R [2])	EC50 (human GcgR)	EC50 (hGIPR [3]; [5])	EC50 (hGLP-1R [4]; [5])	EC50 (hGcgR; [5])	EC50 (hGIPR [3])	EC50 (hGLP-1R [4])	EC50 (hGcgR)
H-Y[Aib]QGTFTSD[4Pal]S[Orn][αMeL]LD[Orn]K([γGlu-γGlu-C18 diacid])AQ[αMe4Pal]AFIEYLLAGGPSSGAPPPSGSEE-NH2 [Example 1068]	20.2 nM	1330 nM	295 nM	0.211 nM	11.6 nM	4.8 nM			
H-Y[Aib]QGT[αMePhe(2-F)]TSD[4Pal]SILLDKQAQK([AEEA-AEEA-γGlu-C20 diacid])AFIEYLLEGGPSSGEPPPSEG-NH2 [Example 347]	17.3 nM	254 nM	3650 nM	0.0634 nM	0.798 nM	8.88 nM			
H-Y[Aib]QGTFTSD[4Pal]SQ[αMeL]LDKK([γGlu-γGlu-C18 diacid])AQ[αMe4Pal]AFIE[αMe4Pal]LIE[Aib]GPSSGAPPPSGE-NH2 [Example 1120]	9.21 nM	171 nM	291 nM	0.096 nM	4.5 nM	5.17 nM			
CC[C@H](C)[C@H](NC(=O)[C@H](Cc1ccccc1)NC(=O)[C@H](CCCN)NC(=O)C(C)(C)NC(=O)[C@H](CCC(N)=O)NC(=O)[C@H](C)NC(=O)[C@H](CCCCNC(=O)CC[C@H](NC(=O)CC[C@H](NC(=O)CCCCCCCCCCCCCCCCC(=O)O)C(=O)O)C(=O)O)NC(=O)[C@H](CCCN)NC(=O)[C@H](CC(=O)O)NC(=O)[C@H](CC(C)C)NC(=O)[C@](C)(CC(C)C)NC(=O)[C@@H](NC(=O)[C@](C)(CO)NC(=O)[C@H](Cc1ccncc1)NC(=O)[C@H](CC(=O)O)NC(=O)[C@H](CO)NC(=O)[C@@H](NC(=O)[C@](C)(Cc1ccccc1F)NC(=O)[C@@H](NC(=O)CNC(=O)[C@H](CCC(N)=O)NC(=O)C(C)(C)NC(=O)[C@@H](N)Cc1ccc(O)cc1)[C@@H](C)O)[C@@H](C)O)[C@@H](C)CC)C(=O)N[C@H](CCC(=O)O)C(=O)N[C@@](C)(Cc1ccc(O)cc1)C(=O)N[C@@H](CC(C)C)C(=O)N[C@@H](CC(C)C)C(=O)N[C@@H](CCC(=O)O)C(=O)NCC(=O)NCC(=O)N1CCC[C@H]1C(=O)N[C@@H](CO)C(=O)N[C@@H](CO)C(=O)NCC(=O)N[C@@H](CCC(=O)O)C(=O)N1CCC[C@H]1C(=O)N1CCC[C@H]1C(=O)N1CCC[C@H]1C(=O)N[C@@H](CO)C(N)=O [Example 374] (H-Y[Aib]QGT[αMePhe(2-F)]TSD[4Pal][αMeS]I[αMeL]LD[Orn]K([γGlu-γGlu-C18 diacid])AQ[Aib][Orn]FI[dE][αMeY]LLEGGPSSGEPPPS-NH2)	2.28 nM	24.5 nM	65.4 nM	0.0186 nM	0.336 nM	0.908 nM			
H-Y[Aib]QGT[αMePhe(2-F)]TSD[4Pal][αMeS]I[αMeL]LD[Orn]K([γGlu-γGlu-C18 diacid])AQ[Aib]NFI[dE][αMeY]LQEGGPSSGEPPPEGT-NH2 [Example 525]	2.07 nM	20.2 nM	460 nM				0.0351 nM	0.426 nM	10 nM
H-Y[Aib]QGT[αMePhe(2-F)]TSD[4Pal]SI[αMeL]LD[Orn]K([AEEA-γGlu-C18 diacid])AQ[Aib][Orn]FIEYLIEGGPSSGEPPPEEG-NH2 [Example 477]	1.44 nM	18.7 nM	716 nM				0.0127 nM	0.173 nM	5.26 nM
Y[Aib]QGTFTSD[4Pal]SQ[αMeL]LDKK([AEEA-γGlu-C18 diacid])AQ[Aib]AFIEYLLE[dA]GPSSGAPPPSG[4Pal]-NH2 [Example 822]	18.1 nM	322 nM	2100 nM	0.186 nM	2.51 nM	11.6 nM			
H-Y[Aib]QGT[αMePhe(2-F)]TSD[4Pal][αMeS]I[αMeL]LD[Orn]K([γGlu-γGlu-C18 diacid])AQ[αMe4Pal]EFI[dE][αMeY]LIEGGPSSGEPPPSGSE-NH2 [Example 716]	0.557 nM	24.1 nM	100 nM				0.00853 nM	0.321 nM	1.12 nM
H-Y[Aib]QGTFTSDFSK[αMeL]LDKK([AEEA-γGlu-C20 diacid])AQ[Aib]AFIEYLLAGGPSSGEPPPGGS-NH2 [Example 9]	41.8 nM	402 nM	1430 nM	0.205 nM	1.61 nM	7.19 nM			
H-Y[Aib]QGT[αMePhe(2-F)]TSD[4Pal][αMeS]I[αMeL]LD[Orn]K([γGlu-γGlu-C18 diacid])AQ[Aib][Orn]FI[dE]YLIEGGPSSGEPPPSGTEE-NH2 [Example 535]	1.16 nM	29.9 nM	238 nM				0.0183 nM	0.418 nM	3.16 nM
H-Y[Aib]QGTFTSDFS[Orn][αMeL]LDKK([AEEA-γGlu-C18 diacid])AQ[Aib]AFIE[4Pal]LLEGGPSSGAPPPGGS-NH2 [Example 496]	60.8 nM	1480 nM	1500 nM				0.387 nM	9.69 nM	8.25 nM
H-Y[Aib]Q[dA]T[αMePhe(2-F)]TSD[4Pal][αMeS]I[αMeL]LD[Orn]K([AEEA-γGlu-C18 diacid])AQ[αMe4Pal]EFI[dE][αMeY]LIEGGPSSGEPPPSGTGE-NH2 [Example 766]	14.1 nM	32.5 nM	65.7 nM				0.0323 nM	0.273 nM	0.689 nM
H-Y[Aib]QGTFTSD[4Pal]SQ[αMeL]LDKK([AEEA-γGlu-C18 diacid])AQ[αMe4Pal]AFIEYLIE[Aib]GPSSGAPPPSGSE-NH2 [Example 886]	26.5 nM	271 nM	540 nM	0.149 nM	2.7 nM	4.13 nM			
H-Y[Aib]QGT[αMePhe(2-F)]TSD[4Pal]SI[αMeL]LD[Orn]K([AEEA-γGlu-C18 diacid])AQ[αMe4Pal][Orn]FI[dE][αMeY]LIEGGPSSGDPPPETE-NH2 [Example 730]	1.29 nM	33 nM	216 nM				0.0122 nM	0.248 nM	2.46 nM
H-Y[Aib]QGTFTSD[4Pal]SQ[αMeL]LD[Orn]K([dE-γGlu-C18 diacid])AQ[αMe4Pal]AFIE[αMeY]LIE[Aib]GPSSGEPPPSGSEE-NH2 [Example 1103]	19.5 nM	183 nM	1350 nM	0.0723 nM	1.06 nM	11.1 nM			
Y[Aib]QGT[αMePhe(2-F)]TSD[4Pal][αMeS]I[αMeL]LD[Orn]K([AEEA-γGlu-C18 diacid])AQ[αMe4Pal]EFI[dE][αMeY]LIEGGPSSGEPPPSGE-NH2 [Example 1141]	0.816 nM	47.5 nM	169 nM	0.00921 nM	0.412 nM	1.15 nM			
H-Y[Aib]QGTFTSD[4Pal]S[Orn][αMeL]LDKK([AEEA-γGlu-C18 diacid])AQ[αMe4Pal]AFIE[αMe4Pal]LIEGGPSSGAPPPSGS-NH2 [Example 949]	26 nM	721 nM	317 nM	0.203 nM	3.37 nM	1.62 nM			
H-Y[Aib]QGTFTSD[4Pal]S[Orn][αMeL]LDKK([γGlu-γGlu-C18 diacid])AQ[αMe4Pal]AFIE[αMe4Pal]LIEGGPSSGAPPPSGSEE-NH2 [Example 958]	27.1 nM	850 nM	340 nM	0.343 nM	9.51 nM	3.17 nM			
